Measured values reported in paper PMC7168710, “Antibacterial Activity of Rationally Designed Antimicrobial Peptides” (International Journal of Microbiology, 2020).
In brackets after ≈: the same amount, converted by molar mass.

How the values were obtained:
[1] = tested on: methicillin-resistant S. aureus (ATCC 33591); test: Microtiter broth dilution MIC, MRSA; format: cell-based, Staphylococcus aureus; conditions: for MIC, MRSA: microtiter broth dilution (CLSI), TSB, 0.5 McFarland, 24 h 37°C, INT 3 h, absorbance 620 nm, MIC = about 90% killing of inoculum, triplicate, repeated three times; for Sensitivity of MRSA (ATCC 33591) to the peptide: microtiter screening, up to 500 μg/ml
Experimental: (§1) The antibacterial activity of the putative antimicrobial peptides was carried out on Staphylococcus aureus spp., a Gram-positive bacterium obtained from the American Type Culture Collection (ATCC), with the S. aureus spp. comprising of the methicillin-sensitive S. aureus (ATCC 25923) and the methicillin-resistant S. aureus (ATCC 33591) strains. The other bacterial strains tested were K. pneumoniae (ATCC 700603) and P. aeruginosa (ATCC 22108) which are Gram-negative bacteria.
(§2) A stock solution of AMPs was prepared by dissolving an amount of AMPs in sterile distilled water (dH2O), and the various AMP working concentrations used in the microtiter broth dilution assay were prepared in two-fold serial dilutions starting at a concentration of 500 μg/ml to 1.5625 μg/ml. Ampicillin was utilized as the positive control in this assay and a working stock solution of 100 μg/ml was prepared in distilled water.
(§3) The microtiter broth dilution method was employed to measure the antibacterial activity of the AMP's. The assay was performed according to the standards and guidelines as stipulated in the Clinical and Laboratory Standards Institute (CLSI). In brief, the test microorganisms (MRSA (ATCC 33591), MSSA (ATCC 25923), K. pneumoniae (ATCC 700603), and P. aeruginosa (ATCC 22108)) were grown to the midlogarithmic phase in Tryptic Soy Broth (TSB) on a shaker set at 37°C and shaking at 150 rpm. The turbidity was adjusted to a 0.5 McFarland standard with a final volume of 10 ml. From the stock of prepared AMP solutions, various working peptide concentrations (500 μg/ml to 1.5625 μg/ml) were prepared, and a mixture of the bacteria with the peptides was incubated in a 96 well flat bottom plate for 24 h at 37°C. Following 24 h incubation, 40 μl of 2-(4-iodophenyl)-3-(4-nitrophenyl)-5-phenyl-2H-tetrazolium (INT) was added to each well and incubated again for 3 h. Absorbance readings were taken at 620 nm on a microtiter plate reader (Omega®POLARstar BMG Labtech, USA).
(§4) All the antibacterial assays of the AMPs were prepared in triplicate, and the experiments were repeated three times to ensure the reproducibility of the testing. Absorbance results were exported into an Excel file, where they were transformed into a percentage, in a Normalizing process. The MIC of each peptide was defined as the concentration resulting in about 90% killing of the initial inoculums.

[2] = tested on: methicillin-sensitive S. aureus (ATCC 25923); test: Microtiter broth dilution MIC, MSSA; format: cell-based, Staphylococcus aureus; conditions: for MIC, MSSA: microtiter broth dilution (CLSI), TSB, 0.5 McFarland, 24 h 37°C, INT 3 h, absorbance 620 nm, MIC = about 90% killing of inoculum, triplicate, repeated three times; for Sensitivity of MSSA (ATCC 25923) to the peptide: microtiter screening, up to 500 μg/ml
Experimental: as §1, §2, §3, §4

[3] = tested on: K. pneumoniae (ATCC 700603); test: Microtiter broth dilution MIC, K. pneumoniae; format: cell-based, Klebsiella pneumoniae; conditions: for MIC, K. pneumoniae: microtiter broth dilution (CLSI), TSB, 0.5 McFarland, 24 h 37°C, INT 3 h, absorbance 620 nm, MIC = about 90% killing of inoculum, triplicate, repeated three times
Experimental: as §1, §2, §3, §4

[4] = tested on: P. aeruginosa (ATCC 22108); test: Microtiter broth dilution MIC, P. aeruginosa; format: cell-based, Pseudomonas aeruginosa; conditions: for MIC, P. aeruginosa: microtiter broth dilution (CLSI), TSB, 0.5 McFarland, 24 h 37°C, INT 3 h, absorbance 620 nm, MIC = about 90% killing of inoculum, triplicate, repeated three times
Experimental: as §1, §2, §3, §4

[5] = tested on: P. aeruginosa (ATCC 22108); test: Growth inhibitory assay (time curve, OD620), P. aeruginosa; format: cell-based, Pseudomonas aeruginosa; conditions: for Growth inhibition of P. aeruginosa over time: OD620 measured 3 to 8 h after treatment, 96-well plates, different peptide concentrations (25 μg/ml and lower)
Experimental: (§5) The growth curves for K. pneumoniae (ATCC 700603) and P. aeruginosa (ATCC 22108) treated with Molecule 3 and Molecule 7 over time were determined based on measurements taken at 620 nm at each collection time. Different concentrations of the peptide were added to the tested strains (K. pneumonia and P. aeruginosa), which were cultured in 96 well plates using the same method as used for the determination of the antimicrobial activity of the AMPs and the MIC.
(§6) In addition to the determined MICs, we investigated the rate at which the peptides influence the bacterial growth over time (Figures 1 and 2). The OD620 was measured from 3 to 8 h after treatment with a microplate reader, with Ampicillin as a positive control.

[6] = tested on: K. pneumoniae (ATCC 700603); test: Growth inhibitory assay (time curve, OD620), K. pneumoniae; format: cell-based, Klebsiella pneumoniae; conditions: for Growth inhibition of K. pneumoniae over time: OD620 measured 3 to 8 h after treatment, 96-well plates, different peptide concentrations (25 μg/ml and lower)
Experimental: as §5, §6

HepG2 cell line = test: MTT cytotoxicity assay, HepG2; format: cell-based, human; conditions: 48 h treatment; for cell lines inhibition, HepG2: 25 μg/ml peptide; for Cell viability, HepG2: 100 μg/ml peptide, one value given for both peptides, repeated three times
Experimental: (§7) The cytotoxicity activity of the AMPs was measured by using the 3-(4,5-dimethylthiazol-2-yl)-2,5- diphenyltetrazolium bromide (MTT) assay as described by Freimoser. In brief, after the trypsinisation of HEK293T and HepG2 cells, 1 × 10^4 cells/well were seeded in a 96-well sterile plate and grown to confluence in Dulbecco's modified Eagle's medium containing 10% fetal calf serum. Molecule 3 and Molecule 7 were each added to the wells at different concentrations (10 μg/ml, 25 μg/ml, 50 μg/ml, and 100 μg/ml). Cells treated with 6% DMSO served as positive control. After 48 h after treatment with the peptides, 20 μl of MTT solution was added to each well, and the plates were incubated in a humidified incubator for 3 h in 5% CO2 at 37°C. After incubation, the media was removed and dimethyl sulfoxide (DMSO) (100 μl per well) was added into each well and the plate was again incubated in a shaker at 37°C, 5% CO2 incubator for 10 min. The plates were gently swirled for 10 min at room temperature to dissolve the precipitate. The absorbance was determined using a multiplate reader (Omega®POLARstar BMG Labtech, USA) at a wavelength of 570 nm, 600 nm, and 630 nm.
(§8) The assay was repeated three times to confirm the reproducibility of the experiment. The final absorbance of the treated cells was obtained by subtracting the background absorbance of the multi-well plate at 630 nm and from the 570 nm measurements. The percentage cell viability was calculated using the following formulae:(1) Cell viability %=OD570−OD630Treated sample/OD570−OD630Untreated control×100.
(§9) Absorbance results were exported into an Excel file, where they were transformed into a percentage, in a process called normalizing.

HEK293T cell line = test: MTT cytotoxicity assay, HEK293T; format: cell-based, human; conditions: 48 h treatment; for cell lines inhibition, HEK293T: 25 μg/ml peptide; for Cell viability, HEK 293T: 100 μg/ml peptide, one value given for both peptides, repeated three times
Experimental: as §7, §8, §9

[7] = 100 μg/ml, OD620 time curve 3 to 8 h

Compound	MIC ([1]; Staphylococcus aureus, read-out: MIC, MRSA) [µg/mL]	MIC ([2]; Staphylococcus aureus, read-out: MIC, MSSA) [µg/mL]	MIC ([3]; Klebsiella pneumoniae, ATCC700603, read-out: MIC, K. pneumoniae) [µg/mL]	MIC ([4]; Pseudomonas aeruginosa, ATCC22108, read-out: MIC, P. aeruginosa) [µg/mL]	Growth inhibition of P. aeruginosa, positive control [5, 7]	Growth inhibition of K. pneumoniae, positive control [6, 7]	MIC, MRSA [1] [µg/mL]	MIC, MSSA [2] [µg/mL]	MIC, K. pneumoniae [3] [µg/mL]	MIC, P. aeruginosa [4] [µg/mL]	Sensitivity of MRSA (ATCC 33591) to the peptide [1]	Sensitivity of MSSA (ATCC 25923) to the peptide [2]	Growth inhibition of P. aeruginosa over time [5]	Growth inhibition of K. pneumoniae over time [6]	cell lines inhibition, HepG2 (HepG2 cell line)	Cell viability, HepG2 (HepG2 cell line) [%]	cell lines inhibition, HEK293T (HEK293T cell line)	Cell viability, HEK 293T (HEK293T cell line) [%]	Period of growth suppression of K. pneumoniae ([6]; peptide concentration 6.25 μg/ml, OD620 time curve) [h]
CC1(C)S[C@@H]2[C@H](NC(=O)[C@H](N)c3ccccc3)C(=O)N2[C@H]1C(=O)O [Ampicillin, reference compound]	> 100	> 100	> 100	100 (≈ 286 µM)	could inhibit the growth	failed to inhibit the growth													
CLKSGAICHPVFCPRRYKQIGTCGLPGTKCCKKP [Molecule 8, putative anti-HIV antimicrobial peptide, chemically synthesized by solid-phase method]							>500	>500	>500	>500									
CLRYKKPECQSDWQCPGKKRCCPDTCGIKCLDPVDTPNPTRRKPGKCPVTYGQCLMLNPPNFCEMDGQCKRDLKCCMGM [Molecule 1, putative anti-HIV antimicrobial peptide, chemically synthesized by solid-phase method]							>500	>500	500	>500									
RWKIFKKIEKMGRNIRDGIVKAGPAIEVLGSAKAIGK [Molecule 7, putative anti-HIV antimicrobial peptide, chemically synthesized by solid-phase method]							>500	>500	12.5	6.25	insensitive	insensitive	could not inhibit P. aeruginosa growth at concentrations lower than the MIC	could not suppress the growth of K. pneumoniae (ATCC 700603) at concentrations lower than the respective MIC values	more than 90%	79.5	more than 90%	59.29	
RWKLFKKIEKVGRNVRDGLIKAGPAIAVIGQAKSLGK [Molecule 3, putative anti-HIV antimicrobial peptide, chemically synthesized by solid-phase method]							>500	>500	12.5	6.25	insensitive	insensitive	able to inhibit P. aeruginosa at all the concentrations and for the duration of the experiment	able to suppress the growth of K. pneumoniae (ATCC 700603) at concentrations equal to the MIC (12.5 μg/ml) and 2x MIC	more than 90%	79.5	more than 90%	59.29	4
WNPFKELEKAGQRVRDAIISAKPAVDVVGQATAIIK [Molecule 10, putative anti-HIV antimicrobial peptide, chemically synthesized by solid-phase method]							>500	>500	500	>500									
